Data: US20260097133A1, “EPIGENETIC EDITING TOOL FOR TARGETING HEPATITIS B VIRUS GENE” (priority 2023, published 2026)

Columns and labels:
Assay type in all cases: cell-based
Conditions in all cases: sgRNA in GFP-negative cell population, day 14 after transfection of EPIREG
[1] = tested on: type D HBV surface antigen (HBsAg) reporter cell line; test: sgRNA lentiviral library screening, HBsAg reporter cell line (NGS reads in GFP-negative cells)
Description: (§1) In this example, the type D HBV X protein (HBx), core antigen (HBcAg), and surface antigen (HBsAg) reporter cell lines were used for library screening. First, a sgRNA cell library of type D HBV gene was constructed using a reporter cell line according to the method described in example 1. The sgRNA library was packaged into lentivirus to obtain a sgRNA lentiviral library (carrying red fluorescence), the reporter cell line was infected with the lentiviral library, and the red fluorescence was sorted to obtain the sgRNA cell library. Each cell in this sorted cell library integrated a single sgRNA in the library while the cell itself carried a reporter sequence (carrying green fluorescence). The EPIREG tool described in example 2 (the amino acid sequence of the tool was SEQ ID NO: 1194) (carrying blue fluorescence) was transfected and delivered into a cell library carrying both sgRNA and reporter sequences. Red/green/blue fluorescent triple-positive cells were sorted using a flow cytometer and cultured long-term. The EPIREG transfected into the cells could work together with the sgRNA to silence GFP in the reporter. On the day 14 after transfection, the GFP-negative cell population in the cell library was sorted, the genomic DNA of the negative cell population was extracted for NGS sequencing. The sgRNAs with higher sequencing reads in the negative cell population were compared using the untreated cell library as a control reference, so as to obtain the candidate sgRNAs that could play an editing role corresponding to each reporter, respectively (the schematic diagram of this screening scheme is shown in FIG. 6, and the analysis method is referenced to the literature DOI: 10.1186/s13059-014-0554-4). The functionally validated sgRNAs for each reporter cell line are summarized in the following table (arranged by the starting position of the target sequence of each sgRNA).

[2] = tested on: type D HBV core antigen (HBcAg) reporter cell line; test: sgRNA lentiviral library screening, HBcAg reporter cell line (NGS reads in GFP-negative cells)
Description: as §1

[3] = tested on: type D HBV X protein (HBx) reporter cell line; test: sgRNA lentiviral library screening, HBx reporter cell line (NGS reads in GFP-negative cells)
Description: as §1

Substance: 27 (guide AACAAGAGATGATTAGGCAG; listed as DNA, chemistry not fully specified) [compound 27]
- Log2 FC [1]: 1.3821

Substance: 39 (guide AACCCCCACTGGCTGGGGCT; listed as DNA, chemistry not fully specified) [compound 39]
- Log2 FC [2]: 3.4538

Substance: 70 (guide ACAAGAGTTGCCTGAACTTT; listed as DNA, chemistry not fully specified) [compound 70]
- Log2 FC [2]: 2.5329

Substance: 74 (guide ACAATGCTCAGGAGACTCTA; listed as DNA, chemistry not fully specified) [compound 74]
- Log2 FC [2]: 2.1202

Substance: 81 (guide ACACGGTCCGGCAGATGAGA; listed as DNA, chemistry not fully specified) [compound 81]
- Log2 FC [2]: 2.0776

Substance: 112 (guide ACCTTTGGATAAAACCTAGC; listed as DNA, chemistry not fully specified) [compound 112]
- Log2 FC [1]: 1.203

Substance: 113 (guide ACGATGTATATTTGCGGGAG; listed as DNA, chemistry not fully specified) [compound 113]
- Log2 FC [2]: 2.0632

Substance: 120 (guide ACTACTAGGTCTCTAGATGC; chemistry not given here) [compound 120]
- Log2 FC [2]: 2.9841

Substance: 121 (guide ACTACTGTTGTTAGACGACG; listed as DNA, chemistry not fully specified) [compound 121]
- Log2 FC [1]: 1.0553

Substance: 139 (guide AGACACCAAATACTCTATAA; listed as DNA, chemistry not fully specified) [compound 139]
- Log2 FC [2]: 2.8391

Substance: 197 (guide AGGTCTGGAGCAAACATTAT; chemistry not given here) [compound 197]
- Log2 FC [3]: 3.6817

Substance: 200 (guide AGGTGCGCCCCGTGGTCGGT; listed as DNA, chemistry not fully specified) [compound 200]
- Log2 FC [3]: 7.535

Substance: 204 (guide AGGTTCCACGCACGCGCTGA; listed as DNA, chemistry not fully specified) [compound 204]
- Log2 FC [3]: 3.0712

Substance: 225 (guide ATACCGCCTCAGCTCTGTAT; listed as DNA, chemistry not fully specified) [compound 225]
- Log2 FC [2]: 3.966

Substance: 249 (guide ATGACCAAGCCCCAGCCAGT; listed as DNA, chemistry not fully specified) [compound 249]
- Log2 FC [3]: 5.9752
- Log2 FC [2]: 2.8648

Substance: 254 (guide ATGGATACGATGTATATTTG; listed as DNA, chemistry not fully specified) [compound 254]
- Log2 FC [3]: 3.4564

Substance: 257 (guide ATGGGCCATCAGCGCGTGCG; listed as DNA, chemistry not fully specified) [compound 257]
- Log2 FC [3]: 6.5564

Substance: 305 (guide CACAGAAAGGCCTTGTAAGT; listed as DNA, chemistry not fully specified) [compound 305]
- Log2 FC [3]: 4.9316
- Log2 FC [2]: 2.1583

Substance: 327 (guide CACTGGCTGGGGCTTGGTCA; listed as DNA, chemistry not fully specified) [compound 327]
- Log2 FC [3]: 5.8386
- Log2 FC [2]: 1.8664

Substance: 335 (guide CAGATGAGAAGGCACAGACG; listed as DNA, chemistry not fully specified) [compound 335]
- Log2 FC [3]: 4.44

Substance: 357 (guide CATGACCAAGCCCCAGCCAG; listed as DNA, chemistry not fully specified) [compound 357]
- Log2 FC [3]: 6.2753
- Log2 FC [2]: 3.1523

Substance: 427 (guide CCGCAGGATTCAGCGCCGAC; listed as DNA, chemistry not fully specified) [compound 427]
- Log2 FC [2]: 3.4136

Substance: 450 (guide CCTGCGGACGACCCTTCTCG; listed as DNA, chemistry not fully specified) [compound 450]
- Log2 FC [3]: 4.242

Substance: 451 (guide CCTGCTGCGAGCAAAACAAG; listed as DNA, chemistry not fully specified) [compound 451]
- Log2 FC [3]: 5.3958
- Log2 FC [2]: 2.9406

Substance: 484 (guide CGCCGACGGGACGTAAACAA; listed as DNA, chemistry not fully specified) [compound 484]
- Log2 FC [3]: 3.3079

Substance: 496 (guide CGGCTAGGAGTTCCGCAGTA; listed as DNA, chemistry not fully specified) [compound 496]
- Log2 FC [3]: 7.3529
- Log2 FC [2]: 2.9031

Substance: 498 (guide CGGGGAGTCCGCGTAAAGAG; listed as DNA, chemistry not fully specified) [compound 498]
- Log2 FC [3]: 2.939

Substance: 539 (guide CTGACGCAACCCCCACTGGC; listed as DNA, chemistry not fully specified) [compound 539]
- Log2 FC [3]: 3.1536

Substance: 553 (guide CTGGCCGTTGCCGGGCAACG; listed as DNA, chemistry not fully specified) [compound 553]
- Log2 FC [3]: 3.9905
- Log2 FC [2]: 2.4462

Substance: 560 (guide CTGTGCCTTGGGTGGCTTTG; listed as DNA, chemistry not fully specified) [compound 560]
- Log2 FC [2]: 2.7695

Substance: 591 (guide GAAGCGAAGTGCACACGGTC; listed as DNA, chemistry not fully specified) [compound 591]
- Log2 FC [3]: 5.7107
- Log2 FC [2]: 4.4134

Substance: 612 (guide GACGCAACCCCCACTGGCTG; listed as DNA, chemistry not fully specified) [compound 612]
- Log2 FC [3]: 6.7125
- Log2 FC [2]: 2.8035

Substance: 628 (guide GAGGTGAAGCGAAGTGCACA; listed as DNA, chemistry not fully specified) [compound 628]
- Log2 FC [2]: 3.2225

Substance: 650 (guide GATTGAATACATGCATACAA; listed as DNA, chemistry not fully specified) [compound 650]
- Log2 FC [3]: 3.726

Substance: 657 (guide GCAAACACTTGGCACAGACC; listed as DNA, chemistry not fully specified) [compound 657]
- Log2 FC [3]: 3.2226
- Log2 FC [2]: 1.9192

Substance: 735 (guide GGCACAGACCTGGCCGTTGC; listed as DNA, chemistry not fully specified) [compound 735]
- Log2 FC [3]: 4.08

Substance: 750 (guide GGCTTCCCGATACAGAGCTG; listed as DNA, chemistry not fully specified) [compound 750]
- Log2 FC [2]: 4.6799

Substance: 762 (guide GGGCAACGGGGTAAAGGTTC; listed as DNA, chemistry not fully specified) [compound 762]
- Log2 FC [3]: 4.8522

Substance: 788 (guide GGGTTGCGTCAGCAAACACT; listed as DNA, chemistry not fully specified) [compound 788]
- Log2 FC [3]: 4.4031

Substance: 841 (guide GTGAAAAAGTTGCATGGTGC; listed as DNA, chemistry not fully specified) [compound 841]
- Log2 FC [2]: 2.0112

Substance: 872 (guide TAAAGACTGGGAGGAGTTGG; listed as DNA, chemistry not fully specified) [compound 872]
- Log2 FC [2]: 3.0933

Substance: 958 (guide TCCTGCGGACGACCCTTCTC; listed as DNA, chemistry not fully specified) [compound 958]
- Log2 FC [3]: 3.9999
- Log2 FC [2]: 3.1878

Substance: 981 (guide TCTAGAAGATCTCGTACTGA; listed as DNA, chemistry not fully specified) [compound 981]
- Log2 FC [2]: 2.1673

Substance: 1006 (guide TGACCAAGCCCCAGCCAGTG; listed as DNA, chemistry not fully specified) [compound 1006]
- Log2 FC [3]: 7.0191
- Log2 FC [2]: 4.2194

Substance: 1008 (guide TGACGCAACCCCCACTGGCT; listed as DNA, chemistry not fully specified) [compound 1008]
- Log2 FC [3]: 4.9717
- Log2 FC [2]: 1.8835

Substance: 1033 (guide TGCGAGCAAAACAAGCGGCT; listed as DNA, chemistry not fully specified) [compound 1033]
- Log2 FC [3]: 3.1795

Substance: 1065 (guide TGGTCGGTCGGAACGGCAGA; listed as DNA, chemistry not fully specified) [compound 1065]
- Log2 FC [3]: 6.0793
- Log2 FC [2]: 2.8985

Substance: 1068 (guide TGGTGAGGTGAACAATGCTC; listed as DNA, chemistry not fully specified) [compound 1068]
- Log2 FC [2]: 2.5736

Substance: 1104 (guide TTCCCGATACAGAGCTGAGG; listed as DNA, chemistry not fully specified) [compound 1104]
- Log2 FC [2]: 3.9205

Substance: 1132 (guide TTTACCCCGTTGCCCGGCAA; listed as DNA, chemistry not fully specified) [compound 1132]
- Log2 FC [3]: 4.252
- Log2 FC [2]: 2.1043
